Test results: ChEMBL document CHEMBL1201862, “PubChem BioAssay data set” (2004)
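48-hour exposure; five concentrations; linearly interpolated endpoints. At the GI50, growth is halved.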 The source made the active and inactive calls. Rule as the data show it: active = GI50 up to about 1.1 µM and inactive = higher.

What was measured:
Assay in all cases: DTP human tumour cell line panel, 48 h
U-251 = test system: U-251
SK-MEL-5 = test system: SK-MEL-5
786-0 = test system: 786-0
COLO 205 = test system: COLO 205
IGROV-1 = test system: IGROV-1
OVCAR-5 = test system: OVCAR-5
TK-10 = test system: TK-10
SF-268 = test system: SF-268
RPMI-8226 = test system: RPMI-8226
Malme-3M = test system: Malme-3M
SN12C = test system: SN12C
CCRF-CEM = test system: CCRF-CEM
DLD-1 = test system: DLD-1
MDA-N = test system: MDA-N
MDA-MB-435 = test system: MDA-MB-435
MCF7 = test system: MCF7
NCI/ADR-RES = test system: NCI/ADR-RES
Hs-578T = test system: Hs-578T
T47D = test system: T47D
PC-3 = test system: PC-3

Measured: GI50

COc1ccc(N2C(=O)C3C=CC(n4[nH]c(=O)n(Cc5ccccc5)c4=O)CC3C2=O)cc1 (stereo not given)
inactive: U-251 > 100 µM | SK-MEL-5 > 100 µM | 786-0 > 100 µM | COLO 205 > 100 µM | IGROV-1 > 100 µM | OVCAR-5 > 100 µM | TK-10 > 100 µM | SF-268 > 100 µM | RPMI-8226 > 100 µM | Malme-3M > 100 µM | SN12C > 100 µM | CCRF-CEM > 100 µM | DLD-1 > 100 µM

COc1nc(N)nc2nc[nH]c12
inactive: U-251 488 µM | SK-MEL-5 > 500 µM | MDA-N > 500 µM | MDA-MB-435 > 500 µM | 786-0 489 µM | COLO 205 393 µM | IGROV-1 239 µM | MCF7 490 µM | NCI/ADR-RES > 500 µM | OVCAR-5 345 µM | TK-10 242 µM | SF-268 435 µM | Hs-578T 416 µM | T47D 418 µM | RPMI-8226 417 µM | Malme-3M 290 µM | SN12C 441 µM | PC-3 466 µM | CCRF-CEM 331 µM | DLD-1 385 µM

COC(=O)c1cccc(C(=O)OC)c1
inactive: U-251 > 100 µM | COLO 205 > 100 µM | OVCAR-5 > 100 µM | TK-10 > 100 µM | SF-268 > 100 µM | RPMI-8226 > 100 µM | Malme-3M > 100 µM | SN12C > 100 µM | CCRF-CEM > 100 µM | DLD-1 > 100 µM

CN(C)CCSc1nccc(-c2ccc(-c3ccnc(SCCN(C)C)n3)s2)n1
inactive: U-251 12.9 µM | SK-MEL-5 15.9 µM | COLO 205 9.4 µM | IGROV-1 12.6 µM | MCF7 4.45 µM | NCI/ADR-RES 4.91 µM | OVCAR-5 9.1 µM | SF-268 8.17 µM | RPMI-8226 2.69 µM | Malme-3M 11.9 µM | SN12C 6.75 µM | CCRF-CEM 1.43 µM | DLD-1 4.81 µM

CC1(C)C2CCC3(OCCO3)C1C(O)C2 (stereo not given)
inactive: U-251 > 100 µM | SK-MEL-5 > 100 µM | 786-0 > 100 µM | IGROV-1 > 100 µM | OVCAR-5 > 100 µM | TK-10 > 100 µM | SF-268 > 100 µM | RPMI-8226 > 100 µM | Malme-3M > 100 µM | CCRF-CEM > 100 µM | DLD-1 > 100 µM

CCOC(=O)CC(NC(=O)c1ccc(/N=N/N(C)C)cc1)C(=O)OCC (stereo not given)
inactive: U-251 > 100 µM | SK-MEL-5 > 100 µM | 786-0 > 100 µM | COLO 205 > 100 µM | IGROV-1 > 100 µM | OVCAR-5 > 100 µM | TK-10 > 100 µM | SF-268 > 100 µM | RPMI-8226 > 100 µM | Malme-3M > 100 µM | SN12C > 100 µM | CCRF-CEM > 100 µM | DLD-1 > 100 µM
